Experimental findings from patent US20080033041A1, “USE OF PHENYLETHANOLAMINOTETRALINES FOR PREPARING ANXIOLYTIC DRUGS” (SANOFI-AVENTIS, priority 2004, published 2008) are described below.

A value given as a limit tells only on which side of the number the result lay.

Assay [1] concerns rats of the Wistar strain. As to the kind of experiment: Novelty Induced Grooming Test. It is filed as in vivo, rat. The note with it: 10 mg/kg i.p., 30 min before test, 30-minute session, control 37 (±3.61). On the procedure: 1) The Novelty Induced Grooming Test
(Gipsen et al., (1975), ibid.)
Male rats of the Wistar strain (purchased from Morini, Italy) weighing from 200 to 220 g were used throughout this test. All animals were gently manipulated by experienced facilities' handlers, avoiding any environmental or physical stress. Compounds according to the invention to be tested were injected intraperitoneally (i.p.) to a group of rats at a dosage 10 mg/kg. Control animals received i.p. the same volume of the vehicle (i.e, physiological saline). […]
Rats were placed individually into plexiglas boxes (24×12×24 cm) in a low noise room. After a minute of adaptation, the behaviour of the rats was sampled every 15 seconds, and the occurrence of grooming was recorded in a session of 30 minutes. The occurrence of the following single elements of grooming was scored as grooming: washing (i.e., vibrating movements of the fore paws in front of the snout and licking of the same paws leading to a series of strokes along the snout and semicircular movements over the top of the head), scratching (that is scratching of the body by one of the limbs), licking (that is licking of the body fur, limbs and tail), and genital grooming (that is licking of genital area). Grooming behaviour of all animals was recorded on a tape using a video-camera (Hitachi Videocam) and then replayed and scored by two independent observers. […]

Assay [2] concerns rats of the Wistar strain. Nature of the assay: Elevated Plus Maze test. It is filed as in vivo, rat. The settings on record: 10 mg/kg i.p., 5 minutes observation. An excerpt: 2) The Elevated Plus Maze Test (Pellow S. et al., Journal of Neuroscience Methods, (1985), 14(3), p.149-67) The animals, their preparation and the i.p. dosage of compound to be tested are the same as those described in the Novelty Induced Grooming test. The apparatus consisted of a plus-shaped maze, elevated of 50 centimetres from the floor, with two opposite open arms (50×10 cm) crossed at right angles by two arms of the same dimensions, but enclosed by 40-centimetre high walls with an open roof. In addition, a 1-centimetre high edge made of plexiglas surrounded the open arms to avoid falls. Illumination measured at the centre of the maze was 40 lux. After treatment, the animal was placed at the centre of the plus maze with its nose in the direction of one of the closed arms, and observed for 5 minutes, according to the following parameters: number of entries in the open and closed arms (this parameter can also be expressed by means of percentage of entries in the open arms), and time of presence in each of them (this parameter can also be expressed by means of percentage of time stayed in the open arms. The time of presence measures the time spent by the animal in the open and closed arms. The animals were divided into four groups with 7 animals per group.

The test system of assay [3] is rats of the Wistar strain. As to the kind of experiment: Ultrasonic Vocalizations (USVs) test. It is filed as in vivo, rat. The settings on record: 10 mg/kg i.p. The source says: 3) The Ultrasonic Vocalizations (USVs) Test
(Molewijk et al., Psychopharmacology, (1996),128, p. 31-38)
The animals, their preparation and the i.p. dosage of compound to be tested are the same as those described in the Novelty Induced Grooming test.
This test consists of two different sessions: training and testing sessions. In the training procedure, all animals were trained for 2 days prior to testing. Training consisted of placing the animal in a standard operant chamber (ENV-018M, Med Associates, Georgia, Vt.) where shock could be delivered from a programmable shocker (Model ENV-413, Med Associates) and where it is equipped with an ultrasonic detector (Mini-3 Bat Detector, Ultra Sound Advice, UK). On each of two consecutive days, all the animals received 20 shocks (1 mA, 4 seconds) separated by a random interval that averaged 60 seconds and ranging from 30 to 90 seconds. Each shock was administered concurrently with a 4-Watt light and an acoustic tone (85 dB, 4 s). The chamber was dark between each shock presentation.
On the day following training, animals were administered 10 mg/kg of compound A and placed in the operant apparatus for testing. […] USVs (18-22 KHz) were recorded over the intertrial interval and were expressed as a sum of total time spent vocalizing for each animal. […]

The subject of assay [4] is Sprague-Dawley and Wistar rats. As to the kind of experiment: Punished Drinking test. The note with it: 10 mg/kg i.p., 30 minutes after injection, 5-minute period, control 10. It is filed as in vivo, rat. The method, then:
4) The Punished Drinking Test (Griebel et al., (2002), ibid.) Male Sprague-Dawley and Wistar rats (Iffa Credo, L'Arbresle, and Charles River, Saint-Aubin-lès-Elbeuf, France), weighing 180 to 250 g were used. Experiments were performed 30 minutes after i.p. injection of 10 mg/kg of the drug or vehicle. The procedure was a modification of the technique described by Vogel et al., Psychopharmacologia, (1971), 21, p. 1-7. At the beginning of the experiment, rats, deprived of water but not of food for 48 hours prior to testing, were placed in cages (32×25×30 cm) with a stainless steel grid floor. Each cage was placed in sound-attenuated boxes that were well ventilated and contained a drinking tube connected to an external 50 mL burette filled with tap water. Trials were started only after the animal's tongue entered in contact with the drinking tube for the first time. An electric shock (0.6 mA/500 ms) was delivered to the tongue after every twenty licks. The number of shocks was recorded automatically during a 5-minute period. Subsequent comparisons between treatment groups and control were carried out using Dunnett's t-test.

The test system of another assay is Mongolian gerbils. As to the kind of experiment: Social Interaction test. The settings on record: 10 mg/kg p.o., 1 hour after administration, control 30 seconds. Format: in vivo, gerbil. The method, then: 5) The Social Interaction Test (Salomé et al., Sanofi-Synthelabo Research, CNS Department, Bagneux, France, ibid.) Male Mongolian gerbils (7-week old, 50-60 g, CERJ, France) were used. Experiments were performed 1 hour after per os (p.o.) administration of 10 mg/kg of the drug or vehicle. The procedure was based on that described initially by File et al., Brain Res., (2001), 888, p. 311-313. Testing lasting two days. On day 1, gerbils were placed individually in a plastic box (30×30×20 cm) under high light conditions (300 lux) for a 10-minute free-exploration period to familiarize with the apparatus. Twenty-four hours later, two gerbils of the same weight but unfamiliar to each other were placed together in the box they had previously explored for a 4 minute 30 seconds observation period. Interaction time (sniffing, chasing, grooming the partner) was recorded manually for each pair of gerbils. Locomotor activity (distance travelled in centimetres) was measured with an automated tracking system (Ethovision, Noldus).

Another assay concerns OF1 mice. Nature of the assay: Mouse Defense test Battery. The note with it: 1 hour after administration. Format: in vivo. On the procedure:
6) The Mouse Defense test Battery (Griebel et al., (2002), ibid.) Male OF1 mice weighing 17 to 32 g were supplied by Charles River, Iffa Credo or Janvier (Le Genest, France). Experiments were performed 1 hour after p.o. administration of 0.3 mg/kg or 3 mg/kg of the drug or vehicle. The test was conducted in an oval runway as described (Griebel et al., 1997), 23, p. 19-31). Tested mice were submitted to a 3-minute familiarization period sixty minutes after p.o. administration of compound A. (a) The rat avoidance test/flight: Immediately after the 3-minute familiarization period, the experimenter introduced a hand-held dead rat (killed by CO2 inhalation just before the beginning of the experiment) five times at one end of the runway. The following parameter was recorded: avoidance distance (cm). (b) Risk Assessment/Chase Test: The rat was then brought up to the subject at a speed of approximately 2 m/s. A constant distance of 2 meters separated the rat and the subject when the former was introduced in the runway. The following parameter was recorded: number of stops (pauses in movement). The rat was removed after the chase was completed. (c) Defensive Aggression/Straight Alley: By the closing of two doors (60 cm distant from each other), the runway was then converted to a straight alley in which the subject was constrained. The experimenter brought the rat up to contact the subject in the straight alley. Approaches were directed quickly (within 1 second) to the subject's head. For each such contact, bites by the subjects were recorded.

With `CCOC(=O)COc1ccc2c(c1)C[C@@H](NC[C@H](O)c1cccc(Cl)c1)CC2.Cl` [compound A, ethyl [(7S) 7-[(2R) 2-(3-chlorophenyl)-2-hydroxyethylamino]-5,6,7,8-tetrahydronaphthalen-2yloxy]-acetate hydrochloride], the “Number of grooming episodes” value in assay [1] was 17.71 (±5.91). Also, the “mean number of entries into the open arms” value in assay [2] (control 4) was found to be 7. Also, the “percentage of time in the open arms” value in assay [2] (control 32%) is 42%. Besides, the “percentage of entries into the open arms” value in assay [2] (control 40%) was found to be 50%. In addition, in assay [2] (control 78 seconds), the “mean time spent in the open arms” value stood at 98 s. Moreover, in assay [3], the “decrease of conditioned USVs versus control” value is reported as about 50%. In addition, the “Conditioned USVs duration (total time spent vocalizing)” value in assay [3] (control more than 210 seconds) is under 120 s. In assay [4], the “Number of shocks (punished responding)” value stood at 30 shocks. This compound also had a Social interaction time in the assay with Mongolian gerbils of 70 s. In the assay on OF1 mice (0.3 mg/kg p.o., control about 2.75 times), the “Number of bites (defensive aggression/straight alley)” value was “about 1.3 times”. Also, in the assay on OF1 mice (3 mg/kg p.o., control 9 stops), the “Number of stops (risk assessment/chase test)” value was 6 stops. Besides, the “Avoidance distance (rat avoidance test/flight)” value with OF1 mice (3 mg/kg p.o., control 120 cm) worked out at 75 cm.
